pIC50: −log10 of the molar value.
Biological target: T1, Mucosa-associated lymphoid tissue lymphoma translocation protein 1 (Homo sapiens, UniProt Q9UDY8)
T1 sequence (Q9UDY8 whole entry): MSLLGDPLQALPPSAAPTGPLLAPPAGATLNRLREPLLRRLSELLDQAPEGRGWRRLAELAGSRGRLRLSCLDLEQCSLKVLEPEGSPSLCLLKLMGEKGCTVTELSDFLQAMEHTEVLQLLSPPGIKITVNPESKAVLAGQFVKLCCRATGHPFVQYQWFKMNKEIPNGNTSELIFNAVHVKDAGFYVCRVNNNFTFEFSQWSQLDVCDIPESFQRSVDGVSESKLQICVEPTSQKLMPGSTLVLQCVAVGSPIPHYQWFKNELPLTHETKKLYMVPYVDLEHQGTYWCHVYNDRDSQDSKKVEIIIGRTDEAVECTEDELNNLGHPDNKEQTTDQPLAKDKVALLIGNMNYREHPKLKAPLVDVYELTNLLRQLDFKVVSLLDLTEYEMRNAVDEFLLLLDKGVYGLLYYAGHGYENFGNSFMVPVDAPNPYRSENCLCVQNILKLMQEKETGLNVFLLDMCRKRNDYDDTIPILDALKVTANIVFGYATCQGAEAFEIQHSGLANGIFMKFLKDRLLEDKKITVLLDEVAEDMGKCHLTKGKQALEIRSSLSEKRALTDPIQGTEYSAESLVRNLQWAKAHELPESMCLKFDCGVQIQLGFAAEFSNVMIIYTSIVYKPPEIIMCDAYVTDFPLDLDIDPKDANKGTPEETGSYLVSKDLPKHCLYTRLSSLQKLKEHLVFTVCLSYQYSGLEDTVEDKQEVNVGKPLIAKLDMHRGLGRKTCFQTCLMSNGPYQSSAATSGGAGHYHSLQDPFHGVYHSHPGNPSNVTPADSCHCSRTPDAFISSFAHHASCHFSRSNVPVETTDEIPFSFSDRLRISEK
Test: MALT-1 Inhibition Assay
Description: MALT-1 paracaspase activity was measured using the fluorogenic substrate Ac-LRSR-Rh110-DP (purchased from Biosantan GmbH). Proteolytic cleavage of the peptide—rhodamine conjugate results in an increase of rhodamine fluorescence which is inhibited by test compounds. Test compounds were diluted in DMSO in a series of 10 semi-log step doses, 15 nL of each compound dose were dispensed in 384 well polypropylene plates (HiBase non-binding, Greiner Bio-One cat #784900). All other assay components were diluted to appropriate working concentrations in assay buffer composed of: 200 mM Tris-HCl (pH 7.5; Sigma-Aldrich cat #T2663-1L), 0.1 mM EGTA (Sigma-Aldrich cat #E3889-10G), 0.05% CHAPS—Sigma-Aldrich cat #C9426-1G), 1 mM TCEP (Sigma-Aldrich cat #646547-10×1 mL), 0.8 M sodium citrate (Sigma-Aldrich cat #S1804-500G). Recombinant human MALT-1 (amino acids 340-824, accession NP_006776.1) was added to compound doses and equilibrated for 40 minutes at rt. The reaction was initiated by addition of substrate. Final concentrations of MALT-1 and substrate were 3 nM and 10 μM respectively. Reactions were incubated in the dark for 60 minutes at 25° C. Fluorescence was measured in a PHERAstar FSX plate reader (BMG LABTECH) with optical setup for excitation at 485 nm and emission at 520 nm, focal height of 11.8 mm, 20 flashes, gain 300. Percent inhibition values were calculated from relative fluorescence units at different doses and fitted to a 4-parameter logistic curve to determine IC50 values.

SMILES	pIC50
CN(C(=O)C1CCS(=O)(=O)CC1)[C@@H](c1ccc(N2CC[C@@]3(CCOC3)c3c2cnc2cc(Cl)nn32)cc1)C(F)(F)F [US20250051327, Reference CPD0073762]	7.28
CN(C(=O)C1CCS(=O)(=O)CC1)[C@@H](c1ccc(N2CC[C@]3(CCOC3)c3c2cnc2cc(Cl)nn32)cc1)C(F)(F)F [US20250051327, Reference CPD0073763]	7.24
CN(C(=O)[C@@H]1CS(=O)(=O)CC12COC2)[C@@H](c1ccc(N2CCCc3c2cnc2cc(Cl)nn32)cc1)C(F)(F)F [US20250051327, Reference CPD0073974]	6.81
CN(C(=O)[C@H]1CS(=O)(=O)CC12COC2)[C@@H](c1ccc(N2CCCc3c2cnc2cc(Cl)nn32)cc1)C(F)(F)F [US20250051327, Reference CPD0073975]	6.95
COc1ccc2ncc(Nc3ccc([C@H](N(C)C(=O)C4CCS(=O)(=O)CC4)C(F)(F)F)cc3)c([C@H]3CCOC3)c2n1 [US20250051327, Reference CPD0074039]	6.86

Other lines, results leading:

pIC50	SMILES
7.08	COc1ccc2ncc(Nc3ccc([C@H](N(C)C(=O)C4CCS(=O)(=O)CC4)C(F)(F)F)cc3)c([C@@H]3CCOC3)c2n1 [US20250051327, Reference CPD0074040]
6.91	COc1ccc2ncc(Nc3ccc([C@H](N(C)C(=O)C4CCS(=O)(=O)CC4)C(F)(F)F)cc3)c(C3(OC)COC3)c2n1 [US20250051327, Reference CPD0076414]
7.35	CO[C@@H](C)c1c(Nc2ccc([C@H](N(C)C(=O)[C@@H]3CCC(=O)N3)C(F)(F)F)cc2)cnn2cc(Cl)nc12 [US20250051327, Reference CPD0082470]
7.39	COc1ccc2ncc(Nc3ccc([C@H](N(C)C(=O)[C@@H]4CNC(=O)C4)C(F)(F)F)cc3)c([C@@H]3CCOC3)c2n1 [US20250051327, Reference CPD0084142]
6.86	CO[C@@H](C)c1c(Nc2ccc([C@H](N(C)C(=O)CN3CCN(C)CC3)C(F)(F)F)cc2)cnn2cc(Cl)nc12 [US20250051327, Reference CPD0084933]
7.19	CO[C@@H](C)c1c(Nc2ccc([C@H](N(C)C(=O)C3CN(S(C)(=O)=O)C3)C(F)(F)F)cc2)cnn2cc(Cl)nc12 [US20250051327, Reference CPD0084936]
